“Also recorded” adds a separate entry of the source. Like-named read-outs stand apart in the source and are kept apart here.
Tests used:
[1] = tested on: L1210/TK^−; assay: Cytostatic assay, thymidine kinase-deficient L1210/TK^− cells; assay type: cell-based, murine; conditions: Mus musculus; for IC50: L1210
[2] = tested on: FM3A/0; assay: Cytostatic assay, FM3A/0 cells; assay type: cell-based; conditions: Mus musculus, FM3A/0; Table 1; read-out: CC50 FM3A/0
Description: The samples were assayed for biological activity versus a range of tumour cell lines with data recorded in Table 1 below. […] The cell lines employed were L1210/0 (a leukemia cell line), FM3A/0 (a breast cancer cell line), Cem/0 (an acute lymphoblastic leukemia cell line) and HeLa (a cervical cell line).

[3] = tested on: FM3A/TK^−; assay: Cytostatic assay, FM3A/TK^− cells; assay type: cell-based; conditions: Mus musculus, Table 1, read-out: CC50 FM3A/TK^−
[4] = tested on: Cem/0; assay: Cytostatic assay, CEM/0 cells; assay type: cell-based, human; conditions: Homo sapiens, CCRF-CEM; for CC50: Table 1, read-out: CC50 Cem/0
Description: (§1) The cell lines employed were L1210/0 (a leukemia cell line), FM3A/0 (a breast cancer cell line), Cem/0 (an acute lymphoblastic leukemia cell line) and HeLa (a cervical cell line).

[5] = tested on: HeLa; assay: Cytostatic assay, HeLa cells; assay type: cell-based; conditions: Homo sapiens, HeLa; for CC50: Table 1, read-out: CC50 HeLa; for IC50: Table 6, read-out: IC50 HeLa
Description: as §1

[6] = tested on: U87; assay: Cytostatic assay, U87 cells; assay type: cell-based; conditions: Homo sapiens, U-87 MG, read-out: IC50 U87
Description: (§3) All cells were maintained in Dulbecco's modified Eagle's medium (DMEM) (Invitrogen, Carlsbad, Calif.) with 10% foetal bovine serum (FBS) (Biochrom AG, Berlin, Germany), 10 mM Hepes and 1 mM Sodium Pyruvate (Invitrogen). Cells were grown at 37° C. in a humidified incubator with a gas phase of 5% CO2.
After 24 hours, an equal volume of fresh medium containing the test compounds was added. On day 5, cells were trypsinized and counted in a Coulter counter (Analis, Suarlée, Belgium). […] The cells were allowed to proliferate for 48 h (L1210) or 72 hours (CEM) and were then counted in a Coulter counter.

[7] = tested on: U87.Hyor; assay: Cytostatic assay, Mycoplasma hyorhinis-infected U87 cells; assay type: cell-based, human; conditions: for IC50: Homo sapiens, U-87 MG, read-out: IC50 U87.Hyor
Description: as §3
Monolayer cells (U87 and U87.Hyor) were seeded in 48-well microtiter plates (Nunc™, Roskilde, Denmark) at 10,000 cells/well. After 24 hours, an equal volume of fresh medium containing the test compounds was added. On day 5, cells were trypsinized and counted in a Coulter counter (Analis, Suarlée, Belgium). Suspension cells (L1210/0, L1210/TK^−, L1210.Hyor, CEM/0, CEM/TK^−) were seeded in 96-well microtiter plates (Nunc™) at 60,000 cells/well in the presence of a given amount of the test compounds. The cells were allowed to proliferate for 48 h (L1210) or 72 hours (CEM) and were then counted in a Coulter counter.

[8] = biological target: E. coli TP (Escherichia coli, UniProt P07650); assay: Phosphorolysis by E. coli TP, HPLC; conditions: 100 μM compound, room temperature, 0-40 min
E. coli TP, sequence (P07650 whole entry): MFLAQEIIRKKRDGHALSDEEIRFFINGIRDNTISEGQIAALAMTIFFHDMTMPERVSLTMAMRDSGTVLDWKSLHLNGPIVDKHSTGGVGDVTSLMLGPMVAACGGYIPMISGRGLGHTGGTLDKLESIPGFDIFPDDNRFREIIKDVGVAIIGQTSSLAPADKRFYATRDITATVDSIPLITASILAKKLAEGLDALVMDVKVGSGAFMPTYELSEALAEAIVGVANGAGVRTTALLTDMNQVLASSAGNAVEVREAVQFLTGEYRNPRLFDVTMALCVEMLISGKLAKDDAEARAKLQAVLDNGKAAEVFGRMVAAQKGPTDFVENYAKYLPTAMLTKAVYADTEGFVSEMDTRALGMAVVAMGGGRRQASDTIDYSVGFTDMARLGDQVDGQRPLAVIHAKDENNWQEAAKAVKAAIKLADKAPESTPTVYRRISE
Description: Reaction mixtures containing 100 μM test compound and recombinant TP or UP (human TP: 8.6 ng/μL; E. coli TP: 3.0 ng/μL; human UP: 4 ng/mL) in a total volume of 500 μL reaction buffer (10 mM TrisHCl; 300 μM NaCl; 1 mM EDTA; 2 mM KH2PO4/K2HPO4) were incubated at room temperature. At different time points (i.e. 0, 20, 40 min) 100 μL aliquots of the reaction mixtures were withdrawn and heated at 95° C. for 3 min to inactivate the enzyme. The resulting reaction products were separated on a reverse-phase RP-8 column (Merck, Darmstadt, Germany) and quantified by HPLC analysis (Alliance 2690, Waters, Milford, Mass.). […] UV-based detection was performed at 267 nm. The separation of Urd from uracil was performed by a linear gradient from 100% separation buffer (see above) to 60% separation buffer+40% acetonitrile (3 min 100% separation buffer; 6 min linear gradient of 100% separation buffer to 60% separation buffer+40% acetonitrile; 6 min 60% separation buffer+40% acetonitrile, followed by equilibration at 100% separation buffer). UV-based detection was performed at 258 nm.

[9] = biological target: T1, thymidylate synthase (TS) (Mus musculus, UniProt P07607); assay: TS activity in intact L1210/0 cells (tritium release); assay type: cell-based, murine; conditions: for increase of inhibition of 3H release upon longer preincubation times: up to 4 hr versus 30 min
T1 sequence (P07607 whole entry): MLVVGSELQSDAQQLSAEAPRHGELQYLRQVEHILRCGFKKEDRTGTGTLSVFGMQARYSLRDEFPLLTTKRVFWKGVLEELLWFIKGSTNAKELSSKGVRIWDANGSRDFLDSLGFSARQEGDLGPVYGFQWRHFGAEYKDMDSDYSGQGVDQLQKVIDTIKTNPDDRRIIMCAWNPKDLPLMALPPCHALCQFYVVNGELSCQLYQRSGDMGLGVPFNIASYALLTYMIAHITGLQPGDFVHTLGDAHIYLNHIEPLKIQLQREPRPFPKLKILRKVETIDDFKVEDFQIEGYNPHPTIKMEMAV
Description: (§2) The activity of TS in intact L1210/0 and L1210/TK^− cells was measured by evaluation of tritium release from [5-^3H]dUMP (formed in the cells from [5-^3H]dUrd or [5-^3H]dCyd) in the reaction catalysed by TS. This method has been described in detail by Balzarini & De Clercq (1984). […] After 30 min, 2 h and 4 h preincubation of the cells with the compounds at 37° C., 1 μCi of [5-^3H]dUrd or [5-^3H]dCyd was added to the cell cultures. After 30 min incubation, 100 μL of the cell suspensions were withdrawn and added to a cold suspension of 500 μL activated charcoal (VWR, Haasrode, Belgium) (100 mg/ml in TCA 5%). After 10 min, the suspension was centrifuged at 13,000 rpm for 10 min, after which the radioactivity in 400 μL supernatant was counted in a liquid sinctillator using OptiPhase HiSafe (Perkin Elmer, Waldham, Mass.).
The activity of TS in intact tumour cells can be directly monitored by measuring the tritium release in intact L1210/0 cell cultures that were exposed to [5-^3H]deoxyuridine ([5-^3H]dUrd) or [5-^3H]deoxycytidine ([5-^3H]dCyd). Indeed, after intracellular conversion of [5-^3H]dUrd or [5-^3H]dCyd to [5-^3H]dUMP, the C-5 tritium atom on the pyrimidine base is released during the TS-catalysed reductive methylation.

[10] = biological target: T1, thymidylate synthase (TS); assay: TS activity in intact L1210/TK^− cells (tritium release); assay type: cell-based, murine; conditions: tritium release from [5-3H]dCyd, 4 hours preincubation; read-out: IC50 against TS, L1210/TK^−
Description: as §2

[11] = tested on: Cem/hEnt-1; assay: Cytostatic assay, CEM cells containing the hEnt1 transporter; assay type: cell-based
Description: Data are mean (±SD) of at least two to four independent experiments. Table 8 identifies the phosphoramidate motif of compounds embodying the present invention, as discussed above with respect to Table 6, but with “Naph” standing for 1-naphthyl.

[12] = biological target: Thymidine Phosphorylase purified from Escherichia coli (Escherichia coli, UniProt P07650); assay: Phosphorylase assay by in situ 19F NMR
Thymidine Phosphorylase purified from Escherichia coli, sequence (P07650 whole entry): as the sequence (P07650 whole entry) above
Description: Two potassium phosphate buffers at pH=7.4, 200 nM solution and 300 nM solution respectively, were used as phosphate donor. Units of enzyme were defined as the amount of enzyme required to hydrolyse about 0.25 mg of inosine per min used as standard. Assays were conducted for 30 minutes.

[13] = Table 3, read-out: IC50 L1210/TK−
[14] = Table 6, read-out: IC50 L1210/TK^−
[15] = L1210/0, 30 min preincubation, both substrates, read-out: IC50 for tritium release from [5-3H]dCyd and [5-3H]dUrd
[16] = intact L1210/0 cells, 30 min exposure, read-out: IC50 Tritium release from dCyd*
[17] = intact L1210/0 cells, 30 min exposure, read-out: IC50 Tritium release from dUrd*
[18] = tritium release from [5-3H]dCyd, 4 hours preincubation, read-out: IC50 against TS, L1210/0
[19] = Homo sapiens, CCRF-CEM, read-out: IC50 Cem/hEnt-1

Molecule `O=c1[nH]c(=O)n([C@H]2C[C@H](O)[C@@H](CO)O2)cc1F` [5-FdUrd, 5-fluoro-2′-deoxyuridine, reference compound] has a CC50 ([1]; L1210, Table 1, read-out: CC50 L1210/TK^−) of 3100 ± 200 nM, an IC50 [1, 13] of 3100 nM and an IC50 [1, 14] of 3000 ± 100 nM. The CC50 [2] was 6.5 ± 5.5 nM, the CC50 [3] was 700 ± 20 nM and the CC50 [4] was 28 ± 2 nM. For the same molecule, the IC50 ([4]; Table 3, read-out: IC50 CEM/0) was 28 nM, the IC50 ([4]; Table 6, read-out: IC50 Cem/0) was 22 ± 6 nM and the CC50 [5] was 29 ± 7 nM. The IC50 [5] was 50 ± 11 nM, the IC50 ([6]; Table 3) was 7 ± 1 nM and the “loss of cytostatic activity in U87.Hyor versus uninfected U87 cells” value [7] was 400 fold. For the same molecule, the IC50 ([7]; Table 3) was 3000 ± 550 nM, the “Phosphorolysis by E. coli TP” value [8] was “rapidly converted” and the IC50 [9, 15] was 0.7 to 0.9 nM. It also gave an IC50 [9, 16] of 0.7 nM, an IC50 [9, 17] of 0.9 ± 0.2 nM and an IC50 [9, 18] of 0.3 nM. The “increase of inhibition of 3H release upon longer preincubation times” value [9] was 2 fold, the IC50 [10] was 1420 ± 90 nM and the IC50 [11, 19] was 40 ± 20 nM. The “Conversion of substrate into the base 5-FU” value ([12]; potassium phosphate buffer increased to 205 nM) was “fully converted” and the “Conversion of nucleoside into the free base 5FU” value ([12]; potassium phosphate buffer, pH 7.4, TP 20.7 UNI, 25° C.) was 66%.
Molecule `C[C@H](NP(=O)(OC[C@H]1O[C@@H](n2cc(F)c(=O)[nH]c2=O)CC1O)Oc1cccc2ccccc12)C(=O)OCc1ccccc1` (stereo partly drawn) [CPF 373, 5-Fluoro-2′deoxyuridine-5′-O-[1-naphthyl (benzoxy-L-alaninyl)] phosphate] has an IC50 [1, 13] of 27 nM, an IC50 [1, 14] of 45 ± 27 nM and a CC50 [2] of 59 ± 46 nM. For the same molecule, the CC50 [3] was 740 ± 180 nM, the CC50 [4] was 89 ± 43 nM and the IC50 ([4]; Table 3, read-out: IC50 CEM/0) was 89 nM. It also gave an IC50 ([4]; Table 6, read-out: IC50 Cem/0) of 68 ± 35 nM, a CC50 [5] of 65 ± 13 nM and an IC50 [5] of 65 ± 13 nM. For the same molecule, the IC50 [6] was 35 nM, the IC50 [7] was 39 nM and the “Phosphorolysis by E. coli TP” value [8] was “fully stable”. The “inhibitory activity on tritium release less pronounced than that of 5-FdUrd” value ([9]; 30 min preincubation) was ~200 fold, the IC50 [9, 15] was 160 to 190 nM and the IC50 [9, 16] was 190 ± 80 nM. The IC50 [9, 17] was 160 ± 50 nM, the IC50 [9, 18] was 13 nM and the “increase of inhibition of 3H release upon longer preincubation times” value [9] was 10 fold. The IC50 [10] was 53 nM, the IC50 [11, 19] was 50 ± 20 nM and the IC50 ([11]; read-out: IC50 Cem/hEnt-1 + NBMPR, in the presence of NBMPR) was 260 nM. The IC50 ([11]; read-out: IC50 Cem/hEnt-1 + dipyridamole, in the presence of dipyridamole) was 130 nM and the “Stability in the presence of TP (19F NMR)” value ([12]; with and without TP, repeated after days) was “completely stable; also recorded: evident stability against TP enzymatic activity”.
